# Values quoted from earlier work, collected in US20220175799A1, “COMPOSITIONS HAVING THE ABILITY TO PROMOTE HEALTHY CHOLESTEROL LEVELS” (Brilliant Lab LLC, priority 2020, published 2022).
# Read-outs that look alike come from different tables or passages of the source.
# How the values were obtained:
# [1] = not given; remark: listed apart in the source
# [2] = not given; remark: listed apart in the source
SMILES,% LDL-C Reduction (statin dose 10 mg) [%],% LDL-C Reduction (statin dose 20 mg) [%],% LDL-C Reduction (statin dose 40 mg) [%],% LDL-C Reduction (statin dose 80 mg) [%],Reduction in LDL-C levels ([1]; statin daily oral dose 5 mg) [mg/dL],Reduction in LDL-C levels ([1]; statin daily oral dose 10 mg) [mg/dL],Reduction in LDL-C levels ([1]; statin daily oral dose 20 mg) [mg/dL],Reduction in LDL-C levels ([1]; statin daily oral dose 40 mg) [mg/dL],Reduction in LDL-C levels ([1]; statin daily oral dose 80 mg) [mg/dL],% LDL-C Reduction (statin dose 1 mg) [%],% LDL-C Reduction (statin dose 2 mg) [%],% LDL-C Reduction (statin dose 4 mg) [%],% LDL-C Reduction (statin dose 5 mg) [%],reduction of LDL-cholesterol in subjects ([2]; 1 g daily) [%],reduction of total cholesterol in subjects ([2]; 1 g daily),reduction of LDL-cholesterol in subjects ([2]; 22 mg daily)
CC(C)c1c(C(=O)Nc2ccccc2)c(-c2ccccc2)c(-c2ccc(F)cc2)n1CC[C@@H](O)C[C@@H](O)CC(=O)O [Atorvastatin],38,42,52,60,58.3917,69.2193,80.0469,91.2612,102.0888,,,,,,,
CC(C)n1c(/C=C/C(O)CC(O)CC(=O)O)c(-c2ccc(F)cc2)c2ccccc21 (stereo not shown) [Fluvastatin],,20,24,34,17.7882,28.6158,39.4434,50.271,61.0986,,,,,,,
CC[C@H](C)C(=O)O[C@H]1C[C@@H](C)C=C2C=C[C@H](C)[C@H](CC[C@@H]3C[C@@H](O)CC(=O)O3)[C@H]21 [Lovastatin],20,26,30,38,,39.4434,54.138,68.4459,83.1405,,,,,,,
O=C(O)C[C@H](O)C[C@H](O)/C=C/c1c(C2CC2)nc2ccccc2c1-c1ccc(F)cc1 [Pitavastatin],,,,,,,,,,30,32,42,,,,
CC(C)c1nc(N(C)S(C)(=O)=O)nc(-c2ccc(F)cc2)c1/C=C/[C@@H](O)C[C@@H](O)CC(=O)O [Rosuvastatin],52,56,63,,71.1528,80.4336,89.7144,98.9952,108.276,,,,44,,,
COc1ccc2cc3[n+](cc2c1OC)CCc1cc2c(cc1-3)OCO2 [berberine],,,,,,,,,,,,,,~16.4,about 11.6%,
CC(C)=CCC/C(C)=C/C=C/C(C)=C/C=C/C(C)=C/C=C/C=C(C)/C=C/C=C(C)/C=C/C=C(\C)CCC=C(C)C [lycopene],,,,,,,,,,,,,,,,about 3.7 mg/dl
